# Data published in patent publication US20220073883A1, “COMPOSITIONS AND METHODS FOR GENERATION OF HEART FIELD-SPECIFIC PROGENITOR CELLS” (The Johns Hopkins University, priority 2018, published 2022).
# How the values were obtained:
# Format in all cases: cell-based, mouse
# [1] = system: ESC-derived cardiac spheroids (Hcn4-GFP; Tbx1-Cre; Ai9); assay: heart field specification: Hcn4-GFP+ and Tbx1-Cre, RFP+ CPCs in cardiac spheroids by FACS at day 5.5; conditions: increasing levels of the factor; day 5.5
# Description: (§1) Next, an embryonic stem cell (ESC) line (ESCHcn4-GFP; Tbx1-Cre Ai9) was established from the mice to determine if heart field specification can be recapitulated in a PSC system. It was hypothesized that a 3D multicellular system would better resemble heart field development in vivo, as early development is a highly dynamic process that involves tissue-tissue interactions between multiple cell types. Since CPCs are specified during mid-late gastrulation 7, 8, multicellular 3D spheroids were generated with the PSCs and treated them with various concentrations of Activin A and Bmp4 to determine whether induction of the early mesoderm influences heart field specification (FIGS. 1C and 1D).
# IPA utilizes an input gene list and a curated database of literature-derived pathways to infer which canonical pathways are most significant to the input data set. The analysis was focused on pathways related to ‘organism growth and development’. […] The effect of Bmp signals was evaluated during heart field specification. In order to minimize the possibility of influencing heart field cells after induction, all of the data were analyzed within 12 hs after the appearance of GFP^+/RFP^+ cells.
# (§2) Mouse ESCs and human iPSCs were maintained and differentiated as previously described^5, 43, 68 Briefly, mESCs were maintained on gelatin-coated dishes in maintenance medium (Glasgow minimum essential medium supplemented with 10% fetal bovine serum and […] Chir99021 and 1 μM PD98059 or 1000 U/ml ESGRO (Millipore, Billerica, Mass.), Glutamax, sodium pyruvate, MEM non-essential amino acids (Thermo Fisher Scientific). For spheroid formation and differentiation, mouse ESCs were plated in IMDM/Ham's F12 (Cellgro) (3:1) supplemented with N2, B27, penicillin/streptomycin, 2 mM GlutaMAX, 0.05% BSA, 5 ng/ml L-ascorbic acid (Sigma-Aldrich) and α-monothioglycerol (MTG; Sigma-Aldrich) at a final density of 100,000 cells/ml to allow spheroid formation. After 48 h spheroids were collected and transferred to ultra-low attachment plastic surface and induced for 40 hours with Activin A, Bmp4, Wnt3A, Wnt5A, Wnt11 (R&D Systems) alone or in combination. Human iPSCs were maintained in Geltrex-coated T25 flasks using Essential 8 medium. For spheroid formation and differentiation, hiPSCs were plated in RPMI plus B27 minus insulin with Bmp4 and CHIR99021 and incubated for 48 h. After 48 h media was changed to RPMI plus B27 minus insulin. The hiPSC line used in this study was developed by Dr. Linzhao Cheng, the Johns Hopkins University, and had was generated from a de-identified patient using an approved IRB protocol.
# (§3) Mouse embryos (E7.75) were dissected using forceps under a stereomicroscope (Zeiss) and regions of interest were dissociated and harvested using TrypLE. Embryoid bodies (EBs) and cells were dissociated and harvested using TrypLE. Single-cells were analyzed for RFP/GFP expression or sorted using a SH800 Cell sorter (Sony Biotechnologies). Live cells were analyzed for RFP and GFP expression and stained with antibodies targeting for the presence of appropriate markers. […] Data was analyzed using FlowJo software.
# [2] = system: ESC-derived cardiac spheroids; assay: cardiogenesis: cTnT+ cardiomyocytes in cardiac spheroids at day 9 (flow cytometry)
# Description: as §1, with “1D). After 5 days of differentiation (120 h), GFP+ and RFP+ cells started to appear in the spheroids. The spheroids were analyzed for GFP+ and RFP+ cells by fluorescent activated cell sorting (FACS) at day 5.5 (132 h). […] The double positive GFP+/RFP+ cells correlated with the total number of GFP+ and RFP+ cells (FIG. 6J) and were sporadically interspersed within the GFP+ domain (FIG. 6K).” for “1D).”
# The overall effects on cardiogenesis were evaluated by analyzing the number of cardiomyocytes at day 9 (FIG. 6L).
# as §2, with “After 48 h media was changed to RPMI plus B27 minus insulin. The hiPSC line used in this study was developed by Dr. Linzhao Cheng, the Johns Hopkins University, and had was generated from a de-identified patient using an approved IRB protocol.” left out
# as §3, with “Embryoid bodies (EBs) and cells were dissociated and harvested using TrypLE.” left out
# [3] = system: ESC-derived cardiac spheroids; assay: qPCR of FHF (tbx5, hcn4) and SHF (tbx1, fgf10) markers in treated spheroids; conditions: Bmp4 (1.25 ng/ml) alone
# Method: To investigate the crosstalk between Bmp and Wnt signals, the spheroids were treated with Bmp4 and Wnts in combinations and analyzed expression levels of FHF (tbx5, hcn4) and SHF (tbx1, fgf10) markers.
# as §2
# RNA isolation was performed using either RNeasy Micro Kit (Cat #74004, Qiagen) or […]® PicoPure® RNA Isolation Kit following the manufacturer's instructions, and cDNA was generated using the high-capacity cDNA reverse transcription kit (Applied Biosystems). qPCR reactions were performed using the Taqman (Applied Biosystems) or Sybr Select qPCR mix (Thermo Fisher) with indicated primers. Gene expression levels were normalized to Gapdh. For the clonal cell-fate analysis, single Isl1-Cre RFP+, Cxcr4− and Isl1-Cre RFP^+, Cxcr4^+ cells were sorted at day 5.5 into 384-well plates and allowed to grow and differentiate for 7 days. […] RNA was isolated from 24 wells with colonies from Cxcr4− and Cxcr4+ sorted cells, respectively. Ct values<30 were considered positive. All samples were also analyzed for gapdh to exclude false-positive results.
# [4] = system: canonical Wnt activity; assay: Topflash luciferase assay; conditions: Bmp4 (1.25 ng/ml) alone; 88 h of differentiation
# Method: To test this, canonical Wnt activity was measured with its readout Topflash.
# For Tbx1 and Tbx5 knockdown experiments, Tbx1 and Tbx5 ON-TARGETplus SMARTpool siRNA or scrambled siRNA (Dharmacon/Thermo Fisher Scientic) was used at 5 nM for cell transfection. Cells were transfected with Lipofectamine LTX (Life Technologies) in single-cell suspensions. For TOP-flash luciferase assays, mESCs were transfected with Topflash constructs and Renilla constructs and analyzed as previously described 5.
substance,measurement,setting,value
"Bmp4: bone morphogenic protein (Bmp) 4, R&D Systems",induction of GFP+ cells (FHF),[1],promoted induction
same,induction of RFP+ cells (SHF),[1],promoted induction
same,number of cTnT+ cardiomyocytes,"[2]; 1.25 ng/ml Bmp4, day 9",> 30%
same,difference in number of cTnT+ cardiomyocytes compared to 0.5 ng/ml Bmp4,"[2]; 1.25 ng/ml vs 0.5 ng/ml Bmp4, day 9",> 10 fold
same,effect on cardiogenesis,"[2]; varying/increasing concentrations, cTnT+ at day 9",profound effect
same,"expression of FHF markers (tbx5, hcn4)",[3],increased expression
same,"expression of SHF markers (tbx1, fgf10)",[3],increased expression
same,topflash activity,[4],increased
